Among the data in US20240217978A1 (CHONG KUN DANG PHARMACEUTICAL CORP., priority 2021, published 2024) are IC50 values, retold here.

pIC50: −log10 of the molar value.

The test deals with human adenosine A2a receptor (Homo sapiens (Human), UniProt P29274). Description: A2a receptor binding affinity, [3H]-NECA radioligand binding test. The note with it: [3H]-NECA 37 nM; membrane from HEK-293 cells transfected with human adenosine A2a receptor. In outline:
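Membranes from HEK-293 cells expressing human A2a receptor were incubated with [3H]-NECA (final 37 nM) and compound for 1 h at room temperature in 50 mM Tris, 10 mM MgCl2, 1 mM EDTA, pH 7.4. Bound ligand was filtered on PEI-coated plates and counted by scintillation to derive IC50 (μM).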

Sequence of human adenosine A2a receptor (P29274 whole entry): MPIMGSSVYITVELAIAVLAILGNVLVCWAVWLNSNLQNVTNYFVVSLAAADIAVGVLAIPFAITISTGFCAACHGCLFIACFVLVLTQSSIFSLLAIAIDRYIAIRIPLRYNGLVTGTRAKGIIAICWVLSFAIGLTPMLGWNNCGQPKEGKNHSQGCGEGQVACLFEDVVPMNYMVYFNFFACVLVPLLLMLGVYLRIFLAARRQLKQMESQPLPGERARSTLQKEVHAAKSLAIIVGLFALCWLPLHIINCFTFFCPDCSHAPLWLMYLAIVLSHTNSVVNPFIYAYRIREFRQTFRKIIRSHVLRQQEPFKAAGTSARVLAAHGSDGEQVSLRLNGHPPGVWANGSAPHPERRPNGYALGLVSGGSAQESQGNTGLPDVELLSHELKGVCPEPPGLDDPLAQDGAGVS

On to `C[C@H](Nc1nc(N)n2nc(-c3ccco3)nc2n1)C(=O)N1CCC2(CC1)CN(Cc1ccc(F)cc1F)C2` [Example 31, (S)-2-((7-amino-2-(furan-2-yl)-[1,2,4]triazolo[1,5-a][1,3,5]triazin-5-yl)amino)-1-(2-(2,4-difluorobenzyl)-2,7-diazaspiro[3.5]nonan-7-yl)propan-1-one], for which the pIC50 (in general, the IC50 on a negative log10 scale, so that one unit is a factor of ten) is 9.00. For the molecule `COC[C@H](Nc1nc(N)n2nc(-c3ccco3)nc2n1)C(=O)N1CCN(CC(C)(F)F)CC1` [Example 397, (S)-2-((7-amino-2-(furan-2-yl)-[1,2,4]triazolo[1,5-a][1,3,5]triazin-5-yl)amino)-1-(4-(2,2-difluoropropyl)piperazin-1-yl)-3-methoxypropan-1-one], the pIC50 was 7.92.

Turning to `Cc1ccc(-c2nc3nc(N4CCC[C@H]4C(=O)N4CCN(CC(C)(C)F)CC4)nc(N)n3n2)o1` [Example 90, (S)-(1-(7-amino-2-(5-methylfuran-2-yl)-[1,2,4]triazolo[1,5-a][1,3,5]triazin-5-yl)pyrrolidin-2-yl)(4-(2-fluoro-2-methylpropyl)piperazin-1-yl)methanone], the pIC50 is 8.10.

For the molecule `CCCCN1CCN(C(=O)[C@@H](Nc2nc(N)n3nc(-c4ccco4)nc3n2)C2CCCC2)CC1` [Example 178, (S)-2-((7-amino-2-(furan-2-yl)-[1,2,4]triazolo[1,5-a][1,3,5]triazin-5-yl)amino)-1-(4-butylpiperazin-1-yl)-2-cyclopentylethan-1-one], the pIC50 was 8.00.

`CCOC[C@H](Nc1nc(N)n2nc(-c3ccco3)nc2n1)C(=O)N1CCN(CC(F)(F)F)CC1` [Example 308, (S)-2-((7-amino-2-(furan-2-yl)-[1,2,4]triazolo[1,5-a][1,3,5]triazin-5-yl)amino)-3-ethoxy-1-(4-(2,2,2-trifluoroethyl)piperazin-1-yl)propan-1-one] gave a pIC50 of 7.89.

`Cc1ccc(-c2nc3nc(N4CCC[C@H]4C(=O)N4CCN(CC(F)(F)F)CC4)nc(N)n3n2)o1` [Example 89, (S)-(1-(7-amino-2-(5-methylfuran-2-yl)-[1,2,4]triazolo[1,5-a][1,3,5]triazin-5-yl)pyrrolidin-2-yl)(4-(2,2,2-trifluoroethyl)piperazin-1-yl)methanone] showed a pIC50 of 7.77. With `Nc1nc(N2CCC[C@H]2C(=O)N2CCN(C(=O)c3cscn3)CC2)nc2nc(-c3ccco3)nn12` [Example 105], the pIC50 was 8.52. Molecule `Nc1nc(N2CCC[C@H]2C(=O)N2C[C@@H]3C[C@H]2CN3Cc2ccc(F)cc2F)nc2nc(-c3ccco3)nn12` [Example 44, ((S)-1-(7-amino-2-(furan-2-yl)-[1,2,4]triazolo[1,5-a][1,3,5]triazin-5-yl)pyrrolidin-2-yl)((1S,4S)-5-(2,4-difluorobenzyl)-2,5-diazabicyclo[2.2.1]heptan-2-yl)methanone] showed a pIC50 of 8.00.

As to `Nc1nc(N2CCC[C@H]2C(=O)N2CCN(C(=O)c3ccccc3)CC2)nc2nc(-c3nccs3)nn12` [Example 192], the pIC50 is 7.77.

In the case of `Nc1nc(N2CCC[C@H]2C(=O)N2CCN(CC3CCC(C(F)(F)F)CC3)CC2)nc2nc(-c3ccco3)nn12` (stereo partly drawn) [Example 330, (S)-(1-(7-amino-2-(furan-2-yl)-[1,2,4]triazolo[1,5-a][1,3,5]triazin-5-yl)pyrrolidin-2-yl)(4-((4-(trifluoromethyl)cyclohexyl)methyl)piperazin-1-yl)methanone], the pIC50 is 7.96.

`CC(C)(F)CN1CCN(C(=O)[C@H](Cc2ccccc2)Nc2nc(N)n3nc(-c4ccco4)nc3n2)CC1` [Example 28, (S)-2-((7-amino-2-(furan-2-yl)-[1,2,4]triazolo[1,5-a][1,3,5]triazin-5-yl)amino)-1-(4-(2-fluoro-2-methylpropyl)piperazin-1-yl)-3-phenylpropan-1-one] showed a pIC50 of 8.10. As for `CC[C@H](Nc1nc(N)n2nc(-c3ccco3)nc2n1)C(=O)N1CCN(c2ncccn2)CC1` [Example 346, (S)-2-((7-amino-2-(furan-2-yl)-[1,2,4]triazolo[1,5-a][1,3,5]triazin-5-yl)amino)-1-(4-(pyrimidin-2-yl)piperazin-1-yl)butan-1-one], the pIC50 is 8.10. To `C[C@H](Nc1nc(N)n2nc(-c3ccco3)nc2n1)C(=O)N1C[C@@H]2C[C@H]1CN2Cc1ccc(F)cc1F` [Example 32, (S)-2-((7-amino-2-(furan-2-yl)-[1,2,4]triazolo[1,5-a][1,3,5]triazin-5-yl)amino)-1-((1S, 4S)-5-(2,4-difluorobenzyl)-2,5-diazabicyclo[2.2.1]heptan-2-yl)propan-1-one] belongs 9.30; to `CC(C)C1CCC(N2CCN(C(=O)[C@@H]3CCCN3c3nc(N)n4nc(-c5ccco5)nc4n3)CC2)CC1` (stereo partly drawn) [Example 153, (S)-(1-(7-amino-2-(furan-2-yl)-[1,2,4]triazolo[1,5-a][1,3,5]triazin-5-yl)pyrrolidin-2-yl)(4-(4-isopropylcyclohexyl)piperazin-1-yl)methanone], 7.92.

Regarding `Nc1nc(N2CC[C@H]2C(=O)N2CCC(C3CCN(CC(F)(F)C(F)(F)F)CC3)CC2)nc2nc(-c3ccco3)nn12` [Example 326, (S)-(1-(7-amino-2-(furan-2-yl)-[1,2,4]triazolo[1,5-a][1,3,5]triazin-5-yl)azetidin-2-yl)(1′-(2,2,3,3,3-pentafluoropropyl)-[4,4′-bipiperidin]-1-yl)methanone], the pIC50 is 9.10. Molecule `Nc1nc(N2CCC[C@H]2C(=O)N2CCN(C3CCCCC3)CC2)nc2nc(-c3ccco3)nn12` [Example 54] showed a pIC50 of 8.22.

`Nc1nc(N[C@@H](Cc2ccccc2)C(=O)N2CCN(CC(F)(F)F)CC2)nc2nc(-c3ccco3)nn12` [Example 4] showed a pIC50 of 9.34. The value for `Nc1nc(N2CCC[C@H]2C(=O)N2CCC(C3CCN(C(=O)Nc4ccccc4)CC3)CC2)nc2nc(-c3ccco3)nn12` [Example 184, 1′-((7-amino-2-(furan-2-yl)-[1,2,4]triazolo[1,5-a][1,3,5]triazin-5-yl)-L-prolyl)-N-phenyl-[4,4′-bipiperidine]-1-carboxamide] was 7.92; that for `COC[C@H](Nc1nc(N)n2nc(-c3ccco3)nc2n1)C(=O)N1CCN(CC(F)(F)F)CC1` [Example 306, (S)-2-((7-amino-2-(furan-2-yl)-[1,2,4]triazolo[1,5-a][1,3,5]triazin-5-yl)amino)-3-methoxy-1-(4-(2,2,2-trifluoroethyl)piperazin-1-yl)propan-1-one] was 7.52.

The molecule `COCCN1CCN(C(=O)[C@@H](Nc2nc(N)n3nc(-c4ccco4)nc3n2)C(C)C)CC1` [Example 60, (S)-2-((7-amino-2-(furan-2-yl)-[1,2,4]triazolo[1,5-a][1,3,5]triazin-5-yl)amino)-1-(4-(2-methoxyethyl)piperazin-1-yl)-3-methylbutan-1-one] gave a pIC50 of 7.74. With `Cc1ncc(C(=O)N2CCN(C(=O)[C@@H]3CCCN3c3nc(N)n4nc(-c5ccco5)nc4n3)CC2)s1` [Example 104], the pIC50 is 7.96. To `CC(C)N1CCN(C(=O)[C@@H]2CCCN2c2nc(N)n3nc(-c4ccco4)nc3n2)CC1` [Example 136, (S)-(1-(7-amino-2-(furan-2-yl)-[1,2,4]triazolo[1,5-a][1,3,5]triazin-5-yl)pyrrolidin-2-yl)(4-isopropylpiperazin-1-yl)methanone] belongs 8.40. Take `Nc1nc(N2CCC[C@H]2C(=O)N2CCC(C3CCN(CC(F)F)CC3)CC2)cc2nc(-c3ccco3)nn12` [Example 393, (S)-(1-(5-amino-2-(furan-2-yl)-[1,2,4]triazolo[1,5-c]pyrimidin-7-yl)pyrrolidin-2-yl)(1′-(2,2-difluoroethyl)-[4,4′-bipiperidin]-1-yl)methanone]: the pIC50 is 7.89. As to `CC(C)(CN1CCN(C(=O)[C@@H]2CCCN2c2nc(N)n3nc(-c4ccco4)nc3n2)CC1)C(F)(F)F` [Example 282, (S)-(1-(7-amino-2-(furan-2-yl)-[1,2,4]triazolo[1,5-a][1,3,5]triazin-5-yl)pyrrolidin-2-yl)(4-(3,3,3-trifluoro-2,2-dimethylpropyl)piperazin-1-yl)methanone], the pIC50 is 8.22. In turn, `COC[C@H](Nc1nc(N)n2nc(-c3ccco3)nc2n1)C(=O)N1CCN(CC(C)(C)O)CC1` [Example 399, (S)-2-((7-amino-2-(furan-2-yl)-[1,2,4]triazolo[1,5-a][1,3,5]triazin-5-yl)amino)-1-(4-(2-hydroxy-2-methylpropyl)piperazin-1-yl)-3-methoxypropan-1-one] had a pIC50 of 8.30. `Nc1nc(N2CC[C@H]2C(=O)N2CCN(C(=O)Nc3ccccc3)CC2)nc2nc(-c3ccco3)nn12` [Example 110, (S)-4-(1-(7-amino-2-(furan-2-yl)-[1,2,4]triazolo[1,5-a][1,3,5]triazine-5-yl)azetidin-2-carbonyl)-N-phenylpiperazin-1-carboxamide] gave a pIC50 of 7.92. In turn, `Nc1nc(N2CCC[C@H]2C(=O)N2CCN(C3CCC(F)(F)CC3)CC2)nc2nc(-c3ccco3)nn12` [Example 56, (S)-(1-(7-amino-2-(furan-2-yl)-[1,2,4]triazolo[1,5-a][1,3,5]triazin-5-yl)pyrrolidin-2-yl)(4-(4,4-difluorocyclohexyl)piperazin-1-yl)methanone] showed a pIC50 of 8.10. `CC(C)[C@H](Nc1nc(N)n2nc(-c3ccco3)nc2n1)C(=O)N1CCN(CC(C)(C)F)CC1` [Example 59, (S)-2-((7-amino-2-(furan-2-yl)-[1,2,4]triazolo[1,5-a][1,3,5]triazin-5-yl)amino)-1-(4-(2-fluoro-2-methylpropyl)piperazin-1-yl)-3-methylbutan-1-one]: the pIC50 is 8.15. Molecule `CN(C(=O)C1CCN(C(=O)[C@@H]2CCCN2c2nc(N)n3nc(-c4ccco4)nc3n2)CC1)c1ccccc1` [Example 133, 1-((7-amino-2-(furan-2-yl)-[1,2,4]triazolo[1,5-a][1,3,5]triazin-5-yl)-L-prolyl)-N-methyl-N-phenylpiperidin-4-carboxamide] gave a pIC50 of 7.96.
